Measurements reported in patent publication US6696495B2, “Treatment of disorders secondary to organic impairments” (Snowden Pharmaceuticals, LLC, priority 1998, dated 2004).

Columns and labels:
[1] = test system: ADHD Refractory to Other Treatments; type: in vivo, human; conditions: for response of ADHD to other medications: four years before sibutramine; for side effects of other medications: human, in vivo
Method: 16. ADHD Refractory to Other Treatments (Problem No. 6) Sibutramine Patient No. 16
The amphetamines made their nervous, jittery, and unable to sleep. […] They were started on sibutramine 10 mg every morning by mouth. […] After the first month, their dose was changed to 5 mg three times daily due to a five hour duration of effects.

[2] = test system: Sexual Function, ADD, and Rage Outbursts; experiment: Case history 3, Sibutramine Patient No. 100; type: in vivo, human; conditions: mood swings, cognitive, anger, sexual problems; before sibutramine
[3] = test system: Tourette's Tics, Asocial Behavior, and Relief of Hyposexuality; conditions: before sibutramine
[4] = test system: Severe Post-Traumatic Stress Reaction; conditions: for response of PTSD symptoms to other medications: before sibutramine
Method: Finally, this patient was taken off of fluoxetine 20 mg when sibutramine treatment was initiated.

[5] = test system: Sexual Obsessive-Compulsive Behavior, ADD and Executive Function; experiment: Case history 6, Sibutramine Patient No. 77; type: in vivo, human; conditions: before sibutramine
[6] = test system: Sexual Gender Choice Change; experiment: Case history 7, Sibutramine Patient No. 99; type: in vivo, human; conditions: depression; impulsive behaviors, mood swings, epileptic symptoms
Huntington's Disease = experiment: Case history 12, Sibutramine Patient No. 113; type: in vivo, human; conditions: after worsening of symptoms
[7] = test system: frontal lobe executive function, ADHD, and hyposexuality; conditions: human, in vivo
[8] = test system: Severe Atypical Psychosis; experiment: Case history 1, Sibutramine Patient No. 97; type: in vivo, human; conditions: treatments before sibutramine
[9] = test system: Asocial Behavior, Violence, and Hyposexuality; experiment: Case history 10, Sibutramine Patient No. 54; type: in vivo, human; conditions: before sibutramine
[10] = test system: Tourette's Disease Tics, Violence, and ADHD; experiment: Case history 8, Sibutramine Patient No. 47; type: in vivo, human; conditions: over six years before sibutramine
Sexual Function and ADD = experiment: Case history 4, Sibutramine Patient No. 109; type: in vivo, human; conditions: before sibutramine
[11] = test system: Non-Tourette's tics, obsessive-compulsive rituals, and attention deficit hyperactive disorder (ADHD); conditions: before sibutramine
[12] = test system: Torticollis, Lingual Dystonia and Dyskinesia; experiment: Case history 23; type: in vivo, human; conditions: in vivo
[13] = test system: Dementia, Alzheimer's-Type; experiment: Case history 24; type: in vivo, human; conditions: before sibutramine
Method: 24. The Symptoms Due to Dementia, Alzheimer's-Type
person one was diagnosed with Dementia. The symptoms they suffered from included memory loss and severe confusion. They tried a variety of treatments to relieve their symptoms including choldine esterase inhibitors, antidepressants, Ritilin, and aterol. […] They were then tested off of sibutramine. […] They began to suffer from a lowered I.Q. and their memory deteriorated.

Q: With `C[C@H](N)Cc1ccccc1` [dextroamphetamine] as the compound, how does the “response of ADHD to other medications” value [1] read?
A: without success

Q: What about the “response to other medications” value [2] of the same compound?
A: unsuccessful

Q: And the “response to other medications” value [3]?
A: without success

Q: What about the “response of PTSD symptoms to other medications” value (from here on “response of PTSD symptoms”) [4] of the same compound?
A: unsuccessful

Q: What about the “response to other medications” value [5] of the same compound?
A: unsuccessful

Q: With `CNCCC(Oc1ccc(C(F)(F)F)cc1)c1ccccc1` (stereo not shown) [fluoxetine] as the compound, how does the “response to other medications” value [6] read?
A: refractory

Q: What about the depression ([4]; human, in vivo) of the same compound?
A: the depression and PTSD were relieved

Q: And the “response to previous medications” value (Huntington's Disease)?
A: no longer responded

Q: And the “response to other medications” value [7]?
A: unsuccessful

Q: And the “response of psychosis symptoms to other medications” value (from here on “response of psychosis symptoms”) [8]?
A: without success

Q: `O=C(CCCN1CCC(O)(c2ccc(Cl)cc2)CC1)c1ccc(F)cc1` [haloperidol] was tested. Which “response to other medications” value [3] did it give?
A: without success

Q: What about the “response to other medications” value [9] of the same compound?
A: without any changes in their speech or mode of communication

Q: And the “response of psychosis symptoms” value [8]?
A: without success

Q: And the “response to other medications” value [5]?
A: unsuccessful

Q: For magnesium pemoline, which “response of ADHD to other medications” value [1] is on record?
A: without success

Q: And the “side effects of other medications” value [1]?
A: made their sleepy

Q: What about the “response to other medications” value [2] of the same compound?
A: not helpful

Q: What about the “response to other medications” value [3] of the same compound?
A: without success

Q: And the “response to other medications” value [10]?
A: without any good results

Q: And the “response to other medications” value (Sexual Function and ADD)?
A: unsuccessful

Q: And the “response to other medications” value [5]?
A: unsuccessful

Q: What does the source list for `CC(NC(C)(C)C)C(=O)c1cccc(Cl)c1` (stereo not shown) [bupropion]?
A: response to other medications [2]: unsuccessful; response to other medications [5]: unsuccessful

Q: With `CCCC(CCC)C(=O)O` [valproic acid] as the compound, how does the “response to other medications” value [2] read?
A: not helpful

Q: And the “response to other medications” value [3]?
A: without success

Q: What about the “response of PTSD symptoms” value [4] of the same compound?
A: unsuccessful

Q: And the “response to other medications” value [10]?
A: without any good results

Q: What about the “response to other medications” value (Sexual Function and ADD) of the same compound?
A: helped their anger attacks but interfered with their concentration considerably and did not help their sexual problems

Q: What about the “response to other medications” value [5] of the same compound?
A: unsuccessful

Q: Which “response of ADHD to other medications” value [1] does the source give for `COC(=O)C(c1ccccc1)C1CCCCN1` (stereo not shown) [methylphenidate] here?
A: without success

Q: What about the “side effects of other medications” value [1] of the same compound?
A: made their sleepy

Q: What about the “response to other medications” value [11] of the same compound?
A: initially treated successfully

Q: And the “response to other medications” value [2]?
A: unsuccessful

Q: What about the “response to other medications” value [6] of the same compound?
A: refractory

Q: What about the “response to other medications” value [3] of the same compound?
A: without success

Q: What about the “response of PTSD symptoms” value [4] of the same compound?
A: unsuccessful

Q: What about the “response to other medications” value [9] of the same compound?
A: without any changes in their speech or mode of communication

Q: And the “response to other medications” value [7]?
A: Initially their attention problems responded

Q: What about the “response to other medications” value [10] of the same compound?
A: without any good results

Q: What about the “response to other medications” value [5] of the same compound?
A: unsuccessful

Q: How did the “response to other treatment” value [12] turn out when botulinum toxin was run?
A: only temporarily relieved their symptoms

Q: How did the “response to other medications” value [11] turn out when `NC(=O)N1c2ccccc2C=Cc2ccccc21` [carbamazepine] was run?
A: unsuccessful

Q: And the “response to other medications” value [2]?
A: helped with their mood swings but not with their anger, sexual, or cognitive problems

Q: What about the “response to other medications” value [6] of the same compound?
A: impulsive behaviors, mood swings, and epileptic symptoms were relieved

Q: And the “response to other medications” value [3]?
A: without success

Q: And the “response of PTSD symptoms” value [4]?
A: unsuccessful

Q: And the “response to other medications” value [9]?
A: without any changes in their speech or mode of communication

Q: What about the “response to previous medications” value (Huntington's Disease) of the same compound?
A: no longer responded

Q: What about the “response to other medications” value [10] of the same compound?
A: without any good results

Q: And the “response of psychosis symptoms” value [8]?
A: did not control their symptoms

Q: For `COC(=O)C(c1ccccc1)C1CCCCN1` (stereo not shown) [Ritilin], which “response to other treatments” value [13] is on record?
A: None of these treatments had any effect on their symptoms

Q: What does the source list for `NCC1(CC(=O)O)CCCCC1` [gabapentin]?
A: response to other medications [6]: refractory; response to other medications [3]: without success; response to previous medications (Huntington's Disease): no longer responded; response to other medications [10]: without any good results
